Experimental data: patent US8741954B2, “Synergistic enhancement of calcium propionate” (ViraTox, L.L.C., priority 2007, dated 2014)

Columns and labels:
[1] = system: Aspergillus niger (ATCC #6275), Chaetomium globosum (ATCC #6205) and Aspergillus terreus (ATCC #10690) suspensions; assay: TAPPI T 487 pm-99 fungal resistance of treated paper; type: cell-based; conditions: treated Whatman paper coupons, 28° C., 21 day test, observed weekly
Protocol: This method is used to determine the resistance of paper and paperboard to fungal growth in ideally suited controlled conditions of light, temperature, moisture, and food supply. Treated 50 mm test coupons of paper are placed on a surface of test agar, flooded with a test inoculum of fungal spores, and incubated to determine fungal resistance. The rating that is provided follows an established protocol to determine the degree of mold growth on a rating scale reported as 1) not fungal resistant; 2) moderately fungal resistant; and 3) resistant.
Challenges of treated porous surfaces, represented by selected samples of untreated paper product specified as Whatman filter paper #4 and paper product specified as Whatman filter paper #4 treated with a solution of fungicides, are exposed to designated fungal suspensions known to cause failure under certain use conditions. The test samples are prepared according to T 487 pm-99 by aseptically removing pre-sterilized 50 mm paper coupons, previously equilibrated to room temperature, and then placed in a controlled chamber at 28+/−1° C. (82.40 F) and 95%-98% RH. The chamber is fitted with a tray filled with a salt solution to maintain humidity control. The test ensues continuously for 21 days and samples are observed weekly. The panels are rated each week according to the appearance of fungal growth.
This series of tests according to the TAPPI T 487 pm-99 protocol were conducted with multiple specimens of treated and untreated (Control) paper substrates with the specified fungal species of Aspergillus niger (ATCC #6275), Chaetomium globosum (ATCC #6205), and Aspergillus terreus (ATCC #10690) suspensions. The suspensions of inoculum were harvested from 14 day potato dextrose agar cultures into sterile water, combining the culture suspensions from each fungal genus and adjusting to concentrations of 10^6/ml. Triplicate substrate samples were then prepared from sheets of cellulose fiber papers (Whatman) cut into 50 mm squares and steam sterilized. The sterilized paper coupons were immersed in a solution of each challenge solution, allowed to soak for ten minutes, removed and placed into aluminum drying trays in a drying oven for 24 hours at 67° C. The test papers were placed onto the surface of prepared agar plates containing mineral-salt agar as outlined in T 487 pm-99. Two plies of paper were treated as a single test specimen and were directly pipetted with 1 ml of fungal suspension on the surface of each test coupon. The plates were then inverted and placed into humid incubation chambers and incubated at 28° C.+/−1 C for 21 days. Observations for growth were conducted on successive weekly schedules as well as verification of test inocula to distinguish contaminants or naturally occurring molds from actual challenge organisms. Growth was defined as sporulating, hyphael appearances directly from the paper substrate. The following comparative table depicts the various solutions and resistance results: […]

[2] = system: suspension of fungal spores of Chaetomium globosum ATCC #6205, Aspergillus niger ATCC #6275 and Aspergillus terreus ATCC #10690; assay: Disk diffusion method of determining susceptibility of fungi (developed from the Kirby-Bauer method); type: cell-based
Protocol: A disk diffusion method of determining susceptibility of fungi to Maquat 2525M 50% was developed from the Kirby-Bauer Bactericidal Disk Diffusion Method. […] This method was utilized as a screening method to achieve a rapid means of fungal inhibition after 5 days of incubation.
The inoculum was composed of a suspension of fungal spores harvested from one week cultures of ATCC #6205-Chaetomium globosum; ATCC #6275-Aspergillus niger; and, ATCC #10690-Aspergillus terreus. Once the plates were seeded with inoculum, DIFCO Concentration Disks (¼″) were impregnated with a 0.5% solution of Maquat 2525M 50%, allowed to air dry in sterile petri dishes and placed at equidistant locations on each plate. At the end of the five day incubation at 30° C., 5 plates containing four disks each were examined visually and microscopically.

In the case of `CCC(=O)O` [1.5% propionic acid, propionic acid], the “Days in Incubation” value [1] is reported as 9 days and the “Resistance Grade” value [1] is reported as “Not resistant”.

With `CCCCCCCCCCCCCCCC[n+]1ccccc1` [1.25% cetylpyridinium chloride, cetylpyridinium chloride] the “Days in Incubation” value [1] was 15 days.

`c1ccc2[nH]c(-c3cscn3)nc2c1` [Thiabendazole (TBZ) 1.0% Merck AgVet, Thiabendazole] was tested, and the “Days in Incubation” value [1] was 17 days and the “Resistance Grade” value [1] was “Moderately resistant”.

With `CCC(=O)[O-].CCC(=O)[O-].[Ca+2]` [calcium propionate] the “Resistance grade of specimens” value ([2]; DIFCO disks impregnated with solution (Maquat 0.5%, calcium propionate 2.5%, sodium carboxymethylcellulose 0.5%, cetylpyridinium chloride 0.125%), potato dextrose agar, 5 days at 30° C.) was “No Resistance”, the “Growth on disks, visual and microscopic examination” value ([2]; after the 5 day incubation period) was “occluded with profuse growth” and the “Days in Incubation” value [1] was 8 days. The “Resistance Grade” value [1] was “Not resistant”.
